The source of these data is patent US20190064177A1, “INCORPORATING COMPETITIVE BINDING INFORMATION INTO MOLECULAR ARRAY ANALYSIS TO GENERATE FUNCTION NETWORKS OF INTERACTIONS” (ARIZONA BOARD OF REGENTS ON BEHALF OF ARIZONA STATE …, priority 2017, published 2019).

The subject of this assay is diaphorase. The assay can be described thus: fluorescently labeled diaphorase binding to peptide array with or without excess FAD. The conditions noted are these: for 1 microM FAD (array fluorescence of bound diaphorase) / 1 micro no FAD (array fluorescence of bound diaphorase): 1 micromolar labeled diaphorase; for 1 microM FAD (array fluorescence of bound diaphorase) / 10 microM FAD (array fluorescence of bound diaphorase): excess FAD present; for 1 microM FAD (array fluorescence of bound diaphorase) / 1 micro no FAD (array fluorescence of bound diaphorase) / 10 microM FAD (array fluorescence of bound diaphorase) / 10 microM no FAD (array fluorescence of bound diaphorase): 65535 is detector saturation; for 10 microM FAD (array fluorescence of bound diaphorase) / 10 microM no FAD (array fluorescence of bound diaphorase): 10 micromolar labeled diaphorase; for 1 microM noFAD/FAD / 10 microM noFAD/FAD: ratio of binding without FAD to binding with FAD; for 1 microM noFAD/FAD / Meas. ratio: 1 micromolar diaphorase; for 10 microM noFAD/FAD: 10 micromolar diaphorase; for Meas. ratio: ratio without/with FAD calculated from measured binding values. The protocol: Measurements were performed in which diaphorase was bound to an array of about 126,000 unique sequences. The sequences were chosen simply to cover sequence space. 16 of the natural 20 amino acids were used to make up these sequences with C, I, M and T omitted. The diaphorase was fluorescently labeled and each peptide sequence feature was scanned and fluorescence recorded on the array. Diaphorase bound tightly to some peptides and not at all to others. Two different concentrations of diaphorase were used, 1 and 10 micromolar, and the diaphorase was either bound in the presence of excess FAD or not. […] Indeed the Pearson correlation coefficient between w/ and w/o FAD was >0.97, which actually speaks to the reproducibility of this dataset. However, there are some differences as shown on the scatter plot of FIG. 1. When one takes a ratio of the binding without FAD and the binding with FAD, one finds the following top 30 ratios (Table 1): Note that all these sequences end with a GSG linker sequence. Because there are two concentrations, one can easily check for consistency. Note that 65535 is detector saturation, so one has to ignore those values. For this reason, the lower concentration is used most of the time. […] It appears that this was some kind of error and was ignored in subsequent analysis. A similar conclusion can be made with the 7th highest value. Looking at the sequences, RW or at least R or K followed by a nonpolar or aromatic amino acid at the N-terminus. This is interesting as FAD is negatively charged, though the adenine in FAD looks a bit like tryptophan (see FIG. 2).

Consider “PRYQNFGGGSG [array peptide with C-terminal GSG linker]”, for which the “1 microM FAD (array fluorescence of bound diaphorase)” value stood at 2458, the “1 micro no FAD (array fluorescence of bound diaphorase)” value was 6907, the “10 microM FAD (array fluorescence of bound diaphorase)” value turned out to be 36662 and the “10 microM no FAD (array fluorescence of bound diaphorase)” value stood at 65535. Also, the “1 microM noFAD/FAD” value is on record as 2.81, the “10 microM noFAD/FAD” value is 1.788 and the Meas. ratio was 2.81.

On to “NRKFYWNAGGSG [array peptide with C-terminal GSG linker]”, for which the Meas. ratio was 2.10.

On to “YRWGAKHYGGSG [array peptide with C-terminal GSG linker]”, for which the Meas. ratio is listed as 2.06.

Take “RSHPKHNVGSG [array peptide with C-terminal GSG linker]”: the “1 microM FAD (array fluorescence of bound diaphorase)” value was determined as 3876, the “1 micro no FAD (array fluorescence of bound diaphorase)” value was found to be 1953.667, the “10 microM FAD (array fluorescence of bound diaphorase)” value was 12238.917 and the “10 microM no FAD (array fluorescence of bound diaphorase)” value came out at 17018.417. The “1 microM noFAD/FAD” value is on record as 0.504, the “10 microM noFAD/FAD” value is 1.391 and the Meas. ratio is recorded as 0.50.

As to “LKQLFLEGGSG [array peptide with C-terminal GSG linker]”, the “1 microM FAD (array fluorescence of bound diaphorase)” value is given as 2474.5, the “1 micro no FAD (array fluorescence of bound diaphorase)” value is recorded as 1559.25, the “10 microM FAD (array fluorescence of bound diaphorase)” value came to 23548.25 and the “10 microM no FAD (array fluorescence of bound diaphorase)” value is given as 8696.5. The “1 microM noFAD/FAD” value is on record as 0.6301, the “10 microM noFAD/FAD” value was determined as 0.3693 and the Meas. ratio is 0.63.

As for DYFEGQLNHLGGS, the Meas. ratio is recorded as 0.75.

Turning to “RFGQNLPLGGSG [array peptide with C-terminal GSG linker]”, the “1 microM FAD (array fluorescence of bound diaphorase)” value amounted to 2103.25, the “1 micro no FAD (array fluorescence of bound diaphorase)” value stood at 5802.25, the “10 microM FAD (array fluorescence of bound diaphorase)” value came to 34712 and the “10 microM no FAD (array fluorescence of bound diaphorase)” value is listed as 63502.5. The “1 microM noFAD/FAD” value is given as 2.759, the “10 microM noFAD/FAD” value turned out to be 1.829 and the Meas. ratio is recorded as 2.76.

As to “YRRPWKFRDGSG [array peptide with C-terminal GSG linker]”, the Meas. ratio was 1.74.

With “WRLNPLQFGGSG [array peptide with C-terminal GSG linker]”, the Meas. ratio was 2.54.

Consider “FLQFLGGSG [array peptide with C-terminal GSG linker]”, for which the Meas. ratio was 0.87.

With “VERASYNLDGSG [array peptide with C-terminal GSG linker]”, the “1 microM FAD (array fluorescence of bound diaphorase)” value is given as 2238, the “1 micro no FAD (array fluorescence of bound diaphorase)” value was determined as 759, the “10 microM FAD (array fluorescence of bound diaphorase)” value is listed as 3374 and the “10 microM no FAD (array fluorescence of bound diaphorase)” value came out at 2900.5. In addition, the “1 microM noFAD/FAD” value amounted to 0.3391, the “10 microM noFAD/FAD” value stood at 0.8597 and the Meas. ratio was 0.34.

Regarding “RQAYLFGGSG [array peptide with C-terminal GSG linker]”, the “1 microM FAD (array fluorescence of bound diaphorase)” value stood at 4477, the “1 micro no FAD (array fluorescence of bound diaphorase)” value is 14479.75, the “10 microM FAD (array fluorescence of bound diaphorase)” value was found to be 64033.5 and the “10 microM no FAD (array fluorescence of bound diaphorase)” value amounted to 65535. Besides, the “1 microM noFAD/FAD” value amounted to 3.234, the “10 microM noFAD/FAD” value is 1.023 and the Meas. ratio is 3.23.

As for “WRGFKFADGGSG [array peptide with C-terminal GSG linker]”, the “1 microM FAD (array fluorescence of bound diaphorase)” value came to 2156.5, the “1 micro no FAD (array fluorescence of bound diaphorase)” value came to 5654.5, the “10 microM FAD (array fluorescence of bound diaphorase)” value worked out at 31464.5 and the “10 microM no FAD (array fluorescence of bound diaphorase)” value is recorded as 58885. Further, the “1 microM noFAD/FAD” value turned out to be 2.622, the “10 microM noFAD/FAD” value is 1.871 and the Meas. ratio was 2.62.

“RFKYPLDGGSG [array peptide with C-terminal GSG linker]”: the “1 microM FAD (array fluorescence of bound diaphorase)” value is given as 2199.25, the “1 micro no FAD (array fluorescence of bound diaphorase)” value came out at 5764.75, the “10 microM FAD (array fluorescence of bound diaphorase)” value is recorded as 30389 and the “10 microM no FAD (array fluorescence of bound diaphorase)” value came out at 55899.25. Further, the “1 microM noFAD/FAD” value worked out at 2.621, the “10 microM noFAD/FAD” value is 1.839 and the Meas. ratio is reported as 2.62.

With “VLAYKLQVDGSG [array peptide with C-terminal GSG linker]”, the Meas. ratio is listed as 0.68.

In the case of “PRFNWKPYGGSG [array peptide with C-terminal GSG linker]”, the Meas. ratio is listed as 2.44.

For the sequence “HVYGLNLFDGSG [array peptide with C-terminal GSG linker]”, the Meas. ratio was 0.72.

As for “VLSLNQVYSEGSG [array peptide with C-terminal GSG linker]”, the “1 microM FAD (array fluorescence of bound diaphorase)” value is 2705.5, the “1 micro no FAD (array fluorescence of bound diaphorase)” value came out at 1674.75, the “10 microM FAD (array fluorescence of bound diaphorase)” value turned out to be 21822.25 and the “10 microM no FAD (array fluorescence of bound diaphorase)” value is given as 9853.75. The “1 microM noFAD/FAD” value stood at 0.619, the “10 microM noFAD/FAD” value was determined as 0.4515 and the Meas. ratio was 0.62.

Take EGFGYLFAHVGGS: the Meas. ratio is reported as 0.78.

In the case of “KHSFQKELGGSG [array peptide with C-terminal GSG linker]”, the “1 microM FAD (array fluorescence of bound diaphorase)” value was determined as 727.5, the “1 micro no FAD (array fluorescence of bound diaphorase)” value is given as 2086, the “10 microM FAD (array fluorescence of bound diaphorase)” value is recorded as 300.5 and the “10 microM no FAD (array fluorescence of bound diaphorase)” value is recorded as 2387.25. The “1 microM noFAD/FAD” value is on record as 2.867, the “10 microM noFAD/FAD” value came out at 0.7943 and the Meas. ratio is 2.87.

Take “RLYPQGYGGSG [array peptide with C-terminal GSG linker]”: the “1 microM FAD (array fluorescence of bound diaphorase)” value is recorded as 4541.5, the “1 micro no FAD (array fluorescence of bound diaphorase)” value is 11912, the “10 microM FAD (array fluorescence of bound diaphorase)” value was 61747 and the “10 microM no FAD (array fluorescence of bound diaphorase)” value came to 65535. Besides, the “1 microM noFAD/FAD” value is given as 2.623, the “10 microM noFAD/FAD” value amounted to 1.061 and the Meas. ratio is 2.62.

“QLLQLLFGGSG [array peptide with C-terminal GSG linker]”: the “1 microM FAD (array fluorescence of bound diaphorase)” value was 6311.5, the “1 micro no FAD (array fluorescence of bound diaphorase)” value is reported as 3228.25, the “10 microM FAD (array fluorescence of bound diaphorase)” value was determined as 53382.25 and the “10 microM no FAD (array fluorescence of bound diaphorase)” value is 19529.5. The “1 microM noFAD/FAD” value is 0.5115, the “10 microM noFAD/FAD” value was determined as 0.3658 and the Meas. ratio is recorded as 0.51.

With “RWSFPAKGGSG [array peptide with C-terminal GSG linker]”, the “1 microM FAD (array fluorescence of bound diaphorase)” value turned out to be 3614, the “1 micro no FAD (array fluorescence of bound diaphorase)” value is 10002.75, the “10 microM FAD (array fluorescence of bound diaphorase)” value was found to be 51221.25 and the “10 microM no FAD (array fluorescence of bound diaphorase)” value turned out to be 65535. The “1 microM noFAD/FAD” value was 2.768, the “10 microM noFAD/FAD” value is given as 1.279 and the Meas. ratio was 2.77.

With FNKVLEYKWLFEG, the Meas. ratio is 0.73.

As to “NVSDLSQFYLSGSG [array peptide with C-terminal GSG linker]”, the “1 microM FAD (array fluorescence of bound diaphorase)” value came to 3436.25, the “1 micro no FAD (array fluorescence of bound diaphorase)” value is recorded as 2144.5, the “10 microM FAD (array fluorescence of bound diaphorase)” value was 27800.25 and the “10 microM no FAD (array fluorescence of bound diaphorase)” value is 6739. The “1 microM noFAD/FAD” value is listed as 0.6241, the “10 microM noFAD/FAD” value worked out at 0.2424 and the Meas. ratio was 0.62.

“YRFPNAQSPGGSG [array peptide with C-terminal GSG linker]”: the “1 microM FAD (array fluorescence of bound diaphorase)” value turned out to be 2373, the “1 micro no FAD (array fluorescence of bound diaphorase)” value is recorded as 6240, the “10 microM FAD (array fluorescence of bound diaphorase)” value worked out at 37721.5 and the “10 microM no FAD (array fluorescence of bound diaphorase)” value amounted to 65535. The “1 microM noFAD/FAD” value is on record as 2.63, the “10 microM noFAD/FAD” value came out at 1.737 and the Meas. ratio is 2.63.

With “RYPWNKLYKFDGSG [array peptide with C-terminal GSG linker]”, the “1 microM FAD (array fluorescence of bound diaphorase)” value is on record as 3483.25, the “1 micro no FAD (array fluorescence of bound diaphorase)” value came out at 9735.75, the “10 microM FAD (array fluorescence of bound diaphorase)” value came to 53014.5 and the “10 microM no FAD (array fluorescence of bound diaphorase)” value is reported as 65535. Also, the “1 microM noFAD/FAD” value is listed as 2.795, the “10 microM noFAD/FAD” value was 1.236 and the Meas. ratio was 2.80.
